PubChem BioAssay AID1963979 (Molecular Pharmacology Branch, DTP, NCI, 2024)
Each block holds one compound with its values, some of them ahead of it.

System: 361931-004-R-J1-PDC multicell spheroid viability
Experiment: Anticancer human tumor 361931-004-R-J1-PDC patient-derived colon adenocarcinoma cell line growth inhibition [PI3K]
Details: for IC50: curve of first compound; for viability, T/C: stronger effect = lower value
How it was run: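 Spheroid viability read-out. Co-cultures contained the tumor line plus HUVEC and human MSCs. Each agent was paired with a PI3K inhibitor (inavolisib, alpelisib, duvelisib, copanlisib) across half-log dilutions starting at clinical Cmax, or at 10 microM when Cmax was unknown.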

[1] = second compound 0.0316 µM, first compound 0.0316 µM
[2] = second compound 0.0316 µM, first compound 0.1 µM
[3] = second compound 0.0316 µM, first compound 0.316 µM
[4] = second compound 0.0316 µM, first compound 1 µM
[5] = second compound 0.0316 µM, first compound 3.16 µM
[6] = second compound 0.0316 µM, first compound 10 µM
[7] = second compound 0.1 µM, first compound 0.0316 µM
[8] = second compound 0.1 µM, first compound 0.1 µM
[9] = second compound 0.1 µM, first compound 0.316 µM
[10] = second compound 0.1 µM, first compound 1 µM
[11] = second compound 0.1 µM, first compound 3.16 µM
[12] = second compound 0.1 µM, first compound 10 µM
[13] = second compound 0.316 µM, first compound 0.0316 µM
[14] = second compound 0.316 µM, first compound 0.1 µM
[15] = second compound 0.316 µM, first compound 0.316 µM
[16] = second compound 0.316 µM, first compound 1 µM
[17] = second compound 0.316 µM, first compound 3.16 µM
[18] = second compound 0.316 µM, first compound 10 µM
[19] = second compound 1 µM, first compound 0.0316 µM
[20] = second compound 1 µM, first compound 0.1 µM
[21] = second compound 1 µM, first compound 0.316 µM
[22] = second compound 1 µM, first compound 1 µM
[23] = second compound 1 µM, first compound 3.16 µM
[24] = second compound 1 µM, first compound 10 µM
[25] = second compound 3.16 µM, first compound 0.0316 µM
[26] = second compound 3.16 µM, first compound 0.1 µM
[27] = second compound 3.16 µM, first compound 0.316 µM
[28] = second compound 3.16 µM, first compound 1 µM
[29] = second compound 3.16 µM, first compound 3.16 µM
[30] = second compound 3.16 µM, first compound 10 µM
[31] = second compound 10 µM, first compound 0.0316 µM
[32] = second compound 10 µM, first compound 0.1 µM
[33] = second compound 10 µM, first compound 0.316 µM
[34] = second compound 10 µM, first compound 1 µM
[35] = second compound 10 µM, first compound 3.16 µM
[36] = second compound 10 µM, first compound 10 µM
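Further: spheroids exposed to agents for seven days before readout.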

IC50 (second compound 0.00316 µM): 1090 nM
IC50 (second compound 0.01 µM): 900 nM
IC50 (second compound 0.0316 µM): 695 nM
IC50 (second compound 0.1 µM): 730 nM
IC50 (second compound 0.316 µM): 965 nM
IC50 (second compound 1 µM): 654 nM
SMILES: Cn1ncc(Cl)c1-c1cc(C(=O)NC(CN)Cc2cccc(F)c2)sc1Cl (stereo unspecified) + CC(Nc1ccc2c(c1)OCCn1cc(N3C(=O)OCC3C(F)F)nc1-2)C(N)=O
viability, T/C (second compound 0.00316 µM, first compound 0.0316 µM): 92.5%
viability, T/C (second compound 0.00316 µM, first compound 0.1 µM): 91.9%
viability, T/C (second compound 0.00316 µM, first compound 0.316 µM): 76.6%
viability, T/C (second compound 0.00316 µM, first compound 1 µM): 50.9%
viability, T/C (second compound 0.00316 µM, first compound 3.16 µM): 32.2%
viability, T/C (second compound 0.00316 µM, first compound 10 µM): 22.6%
viability, T/C (second compound 0.01 µM, first compound 0.0316 µM): 99%
viability, T/C (second compound 0.01 µM, first compound 0.1 µM): 94.5%
viability, T/C (second compound 0.01 µM, first compound 0.316 µM): 68.7%
viability, T/C (second compound 0.01 µM, first compound 1 µM): 48.4%
viability, T/C (second compound 0.01 µM, first compound 3.16 µM): 29%
viability, T/C (second compound 0.01 µM, first compound 10 µM): 15.4%
viability, T/C [1]: 103%
viability, T/C [2]: 110%
viability, T/C [3]: 75.2%
viability, T/C [4]: 37.3%
viability, T/C [5]: 25.8%
viability, T/C [6]: 12.8%
viability, T/C [7]: 85%
viability, T/C [8]: 87.7%
viability, T/C [9]: 67%
viability, T/C [10]: 41.6%
viability, T/C [11]: 26.1%
viability, T/C [12]: 12.8%
viability, T/C [13]: 90.1%
viability, T/C [14]: 77.9%
viability, T/C [15]: 68.8%
viability, T/C [16]: 54.2%
viability, T/C [17]: 22.4%
viability, T/C [18]: 14.6%
viability, T/C [19]: 82.6%
viability, T/C [20]: 79.4%
viability, T/C [21]: 59.5%
viability, T/C [22]: 45.1%
viability, T/C [23]: 24%
viability, T/C [24]: 16.1%

IC50 (second compound 0.0316 µM): > 10000 nM
IC50 (second compound 0.1 µM): > 10000 nM
IC50 (second compound 0.316 µM): > 10000 nM
IC50 (second compound 1 µM): > 10000 nM
IC50 (second compound 3.16 µM): 3520 nM
IC50 (second compound 10 µM): 219 nM
SMILES: C#Cc1c(F)ccc2cc(O)cc(-c3ncc4c(N5CC6CCC(C5)N6)nc(OCC56CCCN5CC(F)C6)nc4c3F)c12 (stereo unspecified) + Cc1nc(NC(=O)N2CCCC2C(N)=O)sc1-c1ccnc(C(C)(C)C(F)(F)F)c1
viability, T/C [1]: 104%
viability, T/C [2]: 90.5%
viability, T/C [3]: 91.6%
viability, T/C [4]: 83%
viability, T/C [5]: 79.7%
viability, T/C [6]: 69.3%
viability, T/C [7]: 109%
viability, T/C [8]: 98.3%
viability, T/C [9]: 93.7%
viability, T/C [10]: 88.9%
viability, T/C [11]: 88.2%
viability, T/C [12]: 61.8%
viability, T/C [13]: 91.6%
viability, T/C [14]: 86.5%
viability, T/C [15]: 78.6%
viability, T/C [16]: 69.5%
viability, T/C [17]: 73.5%
viability, T/C [18]: 58%
viability, T/C [19]: 89.2%
viability, T/C [20]: 86.2%
viability, T/C [21]: 70.3%
viability, T/C [22]: 62.2%
viability, T/C [23]: 68.2%
viability, T/C [24]: 58.6%
viability, T/C [25]: 85.4%
viability, T/C [26]: 77.9%
viability, T/C [27]: 65.5%
viability, T/C [28]: 53.9%
viability, T/C [29]: 56.5%
viability, T/C [30]: 42%
viability, T/C [31]: 62.2%
viability, T/C [32]: 48%
viability, T/C [33]: 49%
viability, T/C [34]: 40.2%
viability, T/C [35]: 39.2%
viability, T/C [36]: 22.1%

IC50 (second compound 0.0316 µM): 9920 nM
IC50 (second compound 0.1 µM): 7970 nM
IC50 (second compound 0.316 µM): 6310 nM
IC50 (second compound 1 µM): 3140 nM
IC50 (second compound 3.16 µM): 1190 nM
IC50 (second compound 10 µM): 213 nM
SMILES: Cn1nccc1Nc1nccc(-c2ccn(C(CO)c3ccc(Cl)c(F)c3)c(=O)c2)n1 (stereo unspecified) + Cc1nc(NC(=O)N2CCCC2C(N)=O)sc1-c1ccnc(C(C)(C)C(F)(F)F)c1
viability, T/C [1]: 106%
viability, T/C [2]: 101%
viability, T/C [3]: 90.4%
viability, T/C [4]: 94.5%
viability, T/C [5]: 85.9%
viability, T/C [6]: 49.2%
viability, T/C [7]: 108%
viability, T/C [8]: 109%
viability, T/C [9]: 101%
viability, T/C [10]: 89.4%
viability, T/C [11]: 78.8%
viability, T/C [12]: 42.9%
viability, T/C [13]: 112%
viability, T/C [14]: 110%
viability, T/C [15]: 95.5%
viability, T/C [16]: 86.8%
viability, T/C [17]: 69.8%
viability, T/C [18]: 37.3%
viability, T/C [19]: 99.5%
viability, T/C [20]: 99.6%
viability, T/C [21]: 94%
viability, T/C [22]: 83.2%
viability, T/C [23]: 49.4%
viability, T/C [24]: 26.9%
viability, T/C [25]: 91.4%
viability, T/C [26]: 87.2%
viability, T/C [27]: 75.9%
viability, T/C [28]: 56.6%
viability, T/C [29]: 24%
viability, T/C [30]: 10.4%
viability, T/C [31]: 80%
viability, T/C [32]: 63.5%
viability, T/C [33]: 43.6%
viability, T/C [34]: 19%
viability, T/C [35]: 4.98%
viability, T/C [36]: 2.3%
